Experiments:
[1] = system: BRD4-knockout (KO) J-Lat cells; assay: RT-qPCR of differentially expressed genes, BRD4-KO J-Lat cells; assay type: cell-based, human; conditions: same treatments
Protocol: To validate the RNA-Seq results, RT-qPCR analysis was performed on a subset of differentially expressed genes (DEGs) (Fig 3E). Eight representative DEGs were selected based on statistical significance (adjusted p values) and their involvement in key pathways identified by GSEA, including lipid metabolism/cholesterol biosynthesis (HMGCS1, SQLE, DHCR7) and cytokine signaling (ITK and DUSP8). Relative gene expression levels were normalized to the housekeeping gene GAPDH. […] As an additional control, RT-qPCR was also performed on RNA isolated from BRD4-knockout (KO) J-Lat cells that received the same treatments. The generation and characterization of BRD4-KO J-Lat cells were described previously.
RT-qPCR was performed as previously reported.

[2] = system: CDK9 binding to HIV 5′-LTR in J-Lat cells (10.6); assay: ChIP-qPCR of CDK9 binding to HIV 5'-LTR; assay type: cell-based, human; conditions: PMA 50ng/ml, 24 hours
Protocol: Twenty-four hours later, cells were subjected to ChIP-qPCR using an anti-CDK9 antibody, with isotype IgG as the ChIP control.
24 hours after treatments, ChIP-qPCR was performed using a CDK9-specific antibody to examine the recruitment of CDK9 to HIV 5’-LTR in J-Lat cells. ChIP using an isotype IgG was included for normalization. Data were shown as fold change in the precipitated HIV 5′ LTR by the CDK9 antibody relative to the control isotype IgG for each treatment condition.
ChIP was performed using a method reported previously [41]. About 15 × 10⁶ J-Lat cells were treated according to the conditions described in the Main Text. After treatment, cells were collected, washed once with PBS, and resuspended in 10 mL PBS. To cross-link protein–DNA complexes, cells were fixed with 37% formaldehyde, and the reaction was quenched by adding 10Xglycine and incubating for 5 min at room temperature. The cells were then pelleted by centrifugation, and the pellets were incubated in ice-cold lysis buffer for 30 min. […] After extensive washing with the appropriate ChIP buffers, immune complexes were eluted, reverse cross-linked, and treated with proteinase K. DNA was purified using phenol–chloroform extraction and subsequently analyzed by qPCR. […] ChIP-qPCR results were quantified using the fold-enrichment method as previously reported [41].

SMILES	Contrasting regulatory effects on representative DEGs in the absence of BRD4 [1]	Increase in CDK9 occupancy at the HIV promoter relative to NC [2]
Cc1sc2c(c1C)C(c1ccc(Cl)cc1)=N[C@@H](CC(=O)OC(C)(C)C)c1nnc(C)n1-2 [JQ1, reference compound]	largely abolished	–
CCCCCCCCCCCCCC(=O)O[C@@H]1[C@@H](C)[C@@]2(O)[C@@H](C=C(CO)C[C@]3(O)C(=O)C(C)=C[C@@H]23)[C@@H]2C(C)(C)[C@]12OC(C)=O [PMA, reference compound]	–	~ 19 fold

Reference: paper PMC12880750, “Mechanistic insights and in vivo HIV suppression by the BRD4-targeting small molecule ZL0580” (PLOS Pathogens, 2026)
